The record followed here is ChEMBL document CHEMBL1144644, “Synthesis and biological evaluation of 12 allenic aromatic ethers” (Bioorg Med Chem Lett, 2007).

As usually defined, the IC50 is the point on the concentration scale where inhibition reaches its midpoint.

Assay [1] relates to KB. The assay is described as follows: Antitumor activity against KB cells by MTT assay. The class given is functional, cell-based. Particulars: Homo sapiens. In general terms: Tetrazolium assays rely on reduction of a dye to a coloured formazan, in cell work by metabolically active cells.
A short description of assay [2]: Antitumor activity against KBv200 cells by MTT assay. The following applies: Homo sapiens. Format: functional, cell-based.

The structures appear in SMILES notation. A value given as a limit tells only on which side of the number the result lay.

For `C=C=CCOc1ccc(/C=C/C(=O)OC)cc1OC`, the IC50 in assay [1] is 17.4 µM; in assay [2] it was 18.3 µM.

For the molecule `C=C=CCOc1ccc(COc2ccc(C(=O)OC)cc2)cc1`, the IC50 in assay [1] amounted to 75.4 µM; in assay [2], 52.9 µM.

Consider `COC(=O)/C=C/c1ccc(O)c(O)c1` [METHYLCAFFEATE], for which the IC50 in assay [1] and in assay [2] was more than 200 µM throughout.

On to `O=C(/C=C/c1ccc(O)c(O)c1)OC1C[C@@](O)(C(=O)O)C[C@H](O)[C@@H]1O` (stereo partly drawn), for which the IC50 in assay [1] and in assay [2] was more than 200 µM throughout.

For the molecule `C=C=CCO`, the IC50 in assay [1] and in assay [2] was more than 200 µM each time.

Regarding `COC(=O)C1(NC(=O)/C=C/c2ccc(O)cc2)CC1`, the half-maximal inhibitory concentration (IC50) in assay [1] and in assay [2] was more than 200 µM throughout.

For `COC(=O)c1ccc(O)cc1` [METHYLPARABEN], the IC50 in assay [1] and in assay [2] was more than 200 µM in each case.

`COC(=O)/C=C/c1ccc(O)c(OC)c1`: the IC50 in assay [1] and in assay [2] was more than 200 µM in each case.

Consider `C=C=CCBr`, for which the IC50 in assay [1] and in assay [2] was more than 200 µM each time.

Consider `C=C=CCOc1ccc(CO)cc1` [TERRICOLLENE C], for which the IC50 in assay [1] was found to be 74.5 µM; in assay [2], 76.6 µM.

As for `C=C=CCOc1ccc(/C=C/C(=O)OC)cc1O`, the figures for the IC50 in assay [1] and in assay [2] were 29.4 µM and 23.4 µM, respectively.

As for `C=C=CCOc1ccc(COc2ccc(/C=C/C(=O)OC)cc2)cc1`, the half-maximal inhibitory concentration (IC50) in assay [1] worked out at 48.8 µM; in assay [2], 55.5 µM.

As for `C=C=CCOC(=O)[C@]1(O)CC(OC(=O)/C=C/c2ccc(OCC=C=C)c(O)c2)[C@@H](O)[C@@H](O)C1` (stereo partly drawn), the 50% inhibitory concentration (IC50) is 53.1 µM in assay [1] and 35.7 µM in assay [2].

With `C=C=CCOc1ccc(/C=C/C(=O)NC2(C(=O)OC)CC2)cc1`, the IC50 in assay [1] was 48.1 µM; in assay [2], 77 µM.

On to `C=C=CCOc1ccc(/C=C/C(=O)O)cc1`, for which the results for the IC50 in assay [1] and in assay [2] were 71.5 µM and 52.4 µM, respectively.

Take `C=C=CCOc1ccc(C(=O)O)cc1`: the half-maximal inhibitory concentration (IC50) came out at 40.6 µM in assay [1] and 49.6 µM in assay [2].

Turning to `C=C=CCOc1ccc(/C=C/C(=O)OC)cc1`, the IC50 in assay [1] amounted to 27.6 µM; in assay [2] it was 19 µM.

With `COC(=O)/C=C/c1ccc(O)cc1` [METHYL P-HYDROXYCINNAMATE], the IC50 is 123 µM in assay [1] and 101 µM in assay [2].

For `C=C=CCOc1ccc(COc2ccc(/C=C/C(=O)OC)cc2OC)cc1`, the IC50 in assay [1] is 34.6 µM; in assay [2] it was 30.3 µM.

For the molecule `OCc1ccc(O)cc1` [PARAHYDROXYBENZYL ALCOHOL], the IC50 in assay [1] and in assay [2] was more than 200 µM each time.

`O=C(O)c1ccc(O)cc1` [PARABEN]: the IC50 in assay [1] and in assay [2] was more than 200 µM each time.

Regarding `O=C(O)/C=C/c1ccc(O)cc1` [COUMARIC ACID], the 50% inhibitory concentration (IC50) in assay [1] and in assay [2] was more than 200 µM each time.

For `COC(=O)C1(N)CC1`, the IC50 in assay [1] was 135 µM; in assay [2] it was more than 200 µM.

For the molecule `C=C=CCOc1ccc(C(=O)OC)cc1`, the IC50 in assay [1] stood at 22.5 µM; in assay [2], 20.9 µM.
